Laboratory results: US20200261584A1, “STABILIZED PROTEIN GEL PREPARATION” (TERUMO KABUSHIKI KAISHA, priority 2013, published 2020)

Experiment: Oxidative stress, Example 29 (α-hANP, hydrogen peroxide, HPLC)
Type: physicochemical
Details: 0.1 mg/mL, solution E pH 4.8, 0.2% hydrogen peroxide, 37° C., one hour
Protocol: A gel preparation 29-48 of formulation 48 containing 0.1 mg/mL of α-hANP was prepared in an amount of 500 μL in a microtube, in the same manner as in the preparing method in (1) of Example 2, while using a solution E (pH 4.8) containing 37.5 mg/mL of D-mannitol and 5 mg/mL of glycine, in place of the solution A. Then, 50 μL of 0.2% hydrogen peroxide was added to the gel preparation, followed by incubation at 37° C. for one hour. Immediately after the incubation, 200 μL of 0.4 M methionine and 250 μL of water were added to the sample, and the gel preparation was disintegrated by a microspatula. The sample was then centrifuged, the supernatant was filtered through a membrane filter to remove aggregates, and the amount of α-hANP contained in the solution was determined by the HPLC method. Note that this experiment was conducted with N=2, and the remaining rate of α-hANP was expressed based on the starting amount. Besides, as a control, an α-hANP solution prepared by dissolving α-hANP in the solution E so as to obtain a concentration of 0.1 mg/mL was subjected to the same process as above, exclusive of the disintegrating operation by the microspatula.

## CC[C@H](C)[C@@H]1NC(=O)[C@H](CCCNC(=N)N)NC(=O)[C@H](CC(=O)O)NC(=O)[C@H](CCSC)NC(=O)[C@H](CCCNC(=N)N)NC(=O)CNC(=O)CNC(=O)[C@H](Cc2ccccc2)NC(=O)[C@@H](NC(=O)[C@H](CO)NC(=O)[C@H](CO)NC(=O)[C@H](CCCNC(=N)N)NC(=O)[C@H](CCCNC(=N)N)NC(=O)[C@H](CC(C)C)NC(=O)[C@@H](N)CO)CSSC[C@@H](C(=O)N[C@@H](CC(N)=O)C(=O)N[C@@H](CO)C(=O)N[C@@H](Cc2ccccc2)C(=O)N[C@@H](CCCNC(=N)N)C(=O)N[C@@H](Cc2ccc(O)cc2)C(=O)O)NC(=O)CNC(=O)[C@H](CC(C)C)NC(=O)CNC(=O)[C@H](CO)NC(=O)[C@H](CCC(N)=O)NC(=O)[C@H](C)NC(=O)CNC1=O [α-hANP solution, α-human atrial natriuretic polypeptide]
  Remaining rate of α-hANP after loaded with oxidative stress, run 1: 65.4%
  Remaining rate of α-hANP after loaded with oxidative stress, run 2: 64.7%
